Here are results for eight compounds from paper PMC5926616 (Japanese Journal of Cancer Research : Gann, 2001).

One experiment relates to HCT-15/ADM1. In words: XTT in vitro growth inhibition assay, HCT-15/ADM1. The format is cell-based, human. As to conditions: IC50 of HCT-15/ADM1 divided by IC50 of parental HCT-15. In general terms: Tetrazolium assays rely on reduction of a dye to a coloured formazan, in cell work by metabolically active cells.
For another experiment, the system named is HCT-15/ADM2. In words: XTT in vitro growth inhibition assay, HCT-15/ADM2. The format is cell-based, human. The following applies: IC50 of HCT-15/ADM2 divided by IC50 of parental HCT-15.
A further experiment deals with HCT-15/ADM2-2. In words: XTT in vitro growth inhibition assay, HCT-15/ADM2-2. As to conditions: IC50 of HCT-15/ADM2-2 divided by IC50 of parental HCT-15. The class given is cell-based, human.
The test system of a further experiment is HCT-15. In words: XTT in vitro growth inhibition assay, parental HCT-15. The class given is cell-based, human. As to conditions: IC50 of subline divided by IC50 of parental cells; HCT-15 (parental, reference).
For a further experiment, the system named is P-glycoprotein-ATPase. As to conditions: cited from earlier work.
For experiment [1] the following is noted: in contrast to cyclosporin A; cited from earlier work.
The subject of a further experiment is P-glycoprotein. As to conditions: cited from earlier work.
The test system of the next experiment is leukemia. As to conditions: randomized trials, combination chemotherapy against leukemia; cited from earlier work.

For `COc1cccc2c1C(=O)c1c(O)c3c(c(O)c1C2=O)C[C@@](O)(C(=O)CO)C[C@@H]3O[C@H]1C[C@H](N)[C@H](O)[C@H](C)O1` [Adriamycin], the Relative resistance in the experiment with HCT-15/ADM1 came out at 2.23; in the experiment with HCT-15/ADM2, 4.40; in the experiment with HCT-15/ADM2-2, 7.77; in the experiment with HCT-15 it was 1.

With `COc1cccc2c1C(=O)c1c(O)c3c(c(O)c1C2=O)C[C@@](O)(C(=O)CO)C[C@@H]3O[C@H]1C[C@H](N)[C@@H](O)[C@H](C)O1` [Epirubicin], the Relative resistance in the experiment on HCT-15/ADM1 amounted to 1.58; in the experiment on HCT-15/ADM2 it was 3.34; in the experiment on HCT-15/ADM2-2 it was 4.33; in the experiment with HCT-15, 1.

Turning to `COc1cc([C@@H]2c3cc4c(cc3[C@@H](O[C@@H]3O[C@@H]5CO[C@@H](C)O[C@H]5[C@H](O)[C@H]3O)[C@H]3COC(=O)[C@H]23)OCO4)cc(OC)c1O` [Etoposide], the Relative resistance in the experiment on HCT-15/ADM1 is 2.27; in the experiment on HCT-15/ADM2, 2.55; in the experiment on HCT-15/ADM2-2 it was 3.16; in the experiment on HCT-15, 1.

On to `CO[C@@]12[C@H](COC(N)=O)C3=C(C(=O)C(C)=C(N)C3=O)N1C[C@@H]1N[C@@H]12` [Mitomycin C], for which the Relative resistance in the experiment with HCT-15/ADM1 turned out to be 0.80; in the experiment with HCT-15/ADM2, 1.77; in the experiment on HCT-15/ADM2-2, 0.26; with HCT-15, 1.

Consider `O=C1c2c(O)ccc(O)c2C(=O)c2c(NCCNCCO)ccc(NCCNCCO)c21` [Mitoxantrone], for which the Relative resistance in the experiment with HCT-15/ADM1 was 1.42; in the experiment on HCT-15/ADM2, 5.40; with HCT-15/ADM2-2 it was 3.12; in the experiment on HCT-15, 1.

On to `CC(=O)O[C@H]1C(=O)[C@@]2(C)[C@H]([C@H](OC(=O)c3ccccc3)[C@]3(O)C[C@H](OC(=O)[C@H](O)[C@@H](NC(=O)c4ccccc4)c4ccccc4)C(C)=C1C3(C)C)[C@]1(OC(C)=O)CO[C@@H]1C[C@@H]2O` [Taxol, paclitaxel], for which the Relative resistance with HCT-15/ADM1 came out at 2.81; with HCT-15/ADM2, 2.63; in the experiment on HCT-15/ADM2-2, 4.81; in the experiment on HCT-15 it was 1.

For `CC[C@]1(O)C[C@H]2CN(CCc3c([nH]c4ccccc34)[C@@](C(=O)OC)(c3cc4c(cc3OC)N(C=O)[C@H]3[C@@](O)(C(=O)OC)[C@H](OC(C)=O)[C@]5(CC)C=CCN6CC[C@]43[C@@H]65)C2)C1` [Vincristine], the Relative resistance worked out at 2.03 with HCT-15/ADM1, 2.19 in the experiment on HCT-15/ADM2, 2.96 with HCT-15/ADM2-2 and 1 in the experiment on HCT-15.

Turning to “[3′‐keto‐Bmt^1]‐[Val^2]‐cyclosporin [Valspodar]”, the “Inhibition of substrate-stimulated P-glycoprotein-ATPase activity” value in the experiment on P-glycoprotein-ATPase was “more potent than cyclosporin A”. Moreover, the Immunosuppressive activity entry in experiment [1] is “non-immunosuppressive”. In addition, the “Effect on binding of photoactive analogues of cyclosporin to P-glycoprotein” value in the experiment on P-glycoprotein is reported as “inhibited”. Moreover, the “Complete remission rates or survival” value with leukemia is “failed to improve”.
